Where two headings read alike, the source gives them in different places.
How the values were obtained:
TLR1/TLR2 [1] = molecular target: TLR1/TLR2 (Homo sapiens, UniProt O60603+Q15399); assay: TNF-α release from PMA-differentiated human THP-1 cells (ELISA); conditions: for Emax: THP-1, 4 h, read-out: Efficacy (magnitude) of response versus diprovocim-1 (100%), THP-1; for EC50: read-out: EC50 (nM) (THP-1): EC50 TNF-α release from human THP-1 cells;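 for all read-outs here: cells exposed to graded compound concentrations for 4 h, TNF-α quantified in supernatant, LPS as positive and DMSO as negative control, values are duplicate means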
Sequence of TLR1/TLR2 (Homo sapiens, UniProt O60603+Q15399) (Q15399 25-786): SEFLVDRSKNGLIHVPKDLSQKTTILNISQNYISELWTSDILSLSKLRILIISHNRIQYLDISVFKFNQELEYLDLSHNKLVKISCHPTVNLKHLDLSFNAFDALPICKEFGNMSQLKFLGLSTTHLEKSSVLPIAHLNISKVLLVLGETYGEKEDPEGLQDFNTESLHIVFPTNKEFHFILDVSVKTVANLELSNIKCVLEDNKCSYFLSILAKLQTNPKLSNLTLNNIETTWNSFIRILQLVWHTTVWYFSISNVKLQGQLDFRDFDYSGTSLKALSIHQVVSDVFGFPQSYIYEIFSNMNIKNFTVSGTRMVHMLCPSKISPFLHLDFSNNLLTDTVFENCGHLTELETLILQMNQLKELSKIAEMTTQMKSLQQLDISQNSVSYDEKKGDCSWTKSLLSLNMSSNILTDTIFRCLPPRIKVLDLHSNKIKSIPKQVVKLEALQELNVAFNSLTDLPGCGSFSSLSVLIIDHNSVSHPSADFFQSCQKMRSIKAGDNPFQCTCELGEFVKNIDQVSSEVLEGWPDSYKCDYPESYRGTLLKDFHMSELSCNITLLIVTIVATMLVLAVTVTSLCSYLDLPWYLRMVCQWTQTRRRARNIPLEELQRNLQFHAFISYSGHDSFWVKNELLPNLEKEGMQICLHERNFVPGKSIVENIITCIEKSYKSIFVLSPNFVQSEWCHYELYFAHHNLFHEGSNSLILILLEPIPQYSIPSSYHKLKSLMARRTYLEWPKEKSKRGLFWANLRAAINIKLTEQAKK
Sequence of TLR1/TLR2 (Homo sapiens, UniProt O60603+Q15399) (O60603 21-784): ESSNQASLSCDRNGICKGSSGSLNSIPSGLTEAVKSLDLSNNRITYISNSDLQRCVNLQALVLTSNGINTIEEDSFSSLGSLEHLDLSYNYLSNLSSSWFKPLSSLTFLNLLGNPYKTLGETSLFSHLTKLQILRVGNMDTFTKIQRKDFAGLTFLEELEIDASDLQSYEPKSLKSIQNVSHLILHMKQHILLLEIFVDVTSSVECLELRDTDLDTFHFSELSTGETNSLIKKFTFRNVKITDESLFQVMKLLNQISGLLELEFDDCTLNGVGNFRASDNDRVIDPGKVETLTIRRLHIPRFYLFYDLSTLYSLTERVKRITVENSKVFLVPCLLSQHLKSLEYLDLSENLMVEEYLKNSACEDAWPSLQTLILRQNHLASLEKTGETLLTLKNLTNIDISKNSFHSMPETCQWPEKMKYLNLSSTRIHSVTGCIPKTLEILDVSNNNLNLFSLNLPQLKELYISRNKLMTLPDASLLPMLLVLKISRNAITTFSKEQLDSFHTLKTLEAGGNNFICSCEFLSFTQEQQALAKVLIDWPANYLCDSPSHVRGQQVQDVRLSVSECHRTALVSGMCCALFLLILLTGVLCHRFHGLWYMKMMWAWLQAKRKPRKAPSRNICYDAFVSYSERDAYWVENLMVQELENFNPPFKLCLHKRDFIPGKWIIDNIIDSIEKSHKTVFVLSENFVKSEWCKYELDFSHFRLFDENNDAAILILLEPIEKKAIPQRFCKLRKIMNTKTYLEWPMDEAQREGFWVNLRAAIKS

TLR1/TLR2 [2] = molecular target: TLR1/TLR2 (Mus musculus, UniProt Q9EPQ1+Q9QUN7); assay: TNF-α release from thioglycolate-elicited mouse peritoneal macrophages (ELISA); conditions: for Emax: 4 h, read-out: Efficacy (magnitude) of response versus diprovocim-1 (100%), mouse macrophages
Sequence of TLR1/TLR2 (Mus musculus, UniProt Q9EPQ1+Q9QUN7) (Q9EPQ1 26-795): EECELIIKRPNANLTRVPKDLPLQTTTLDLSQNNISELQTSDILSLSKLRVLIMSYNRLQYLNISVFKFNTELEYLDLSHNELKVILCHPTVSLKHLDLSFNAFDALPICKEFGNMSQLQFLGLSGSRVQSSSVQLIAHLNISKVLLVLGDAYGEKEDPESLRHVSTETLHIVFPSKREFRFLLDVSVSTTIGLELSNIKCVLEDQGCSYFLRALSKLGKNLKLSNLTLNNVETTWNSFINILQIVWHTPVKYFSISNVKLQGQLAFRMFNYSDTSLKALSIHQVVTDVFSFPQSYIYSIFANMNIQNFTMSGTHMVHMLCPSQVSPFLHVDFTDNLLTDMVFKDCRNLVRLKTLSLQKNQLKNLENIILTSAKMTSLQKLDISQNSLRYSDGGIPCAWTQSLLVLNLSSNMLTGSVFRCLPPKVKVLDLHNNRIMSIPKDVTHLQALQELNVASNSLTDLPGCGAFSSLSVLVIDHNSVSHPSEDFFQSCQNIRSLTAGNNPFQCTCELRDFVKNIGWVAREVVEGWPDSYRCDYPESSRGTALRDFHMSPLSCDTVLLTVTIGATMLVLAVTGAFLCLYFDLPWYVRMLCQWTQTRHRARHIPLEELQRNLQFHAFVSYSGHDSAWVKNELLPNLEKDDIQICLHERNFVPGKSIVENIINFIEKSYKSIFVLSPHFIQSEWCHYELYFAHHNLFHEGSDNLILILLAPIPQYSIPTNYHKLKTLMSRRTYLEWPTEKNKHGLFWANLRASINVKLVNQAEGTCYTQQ
Sequence of TLR1/TLR2 (Mus musculus, UniProt Q9EPQ1+Q9QUN7) (Q9QUN7 25-784): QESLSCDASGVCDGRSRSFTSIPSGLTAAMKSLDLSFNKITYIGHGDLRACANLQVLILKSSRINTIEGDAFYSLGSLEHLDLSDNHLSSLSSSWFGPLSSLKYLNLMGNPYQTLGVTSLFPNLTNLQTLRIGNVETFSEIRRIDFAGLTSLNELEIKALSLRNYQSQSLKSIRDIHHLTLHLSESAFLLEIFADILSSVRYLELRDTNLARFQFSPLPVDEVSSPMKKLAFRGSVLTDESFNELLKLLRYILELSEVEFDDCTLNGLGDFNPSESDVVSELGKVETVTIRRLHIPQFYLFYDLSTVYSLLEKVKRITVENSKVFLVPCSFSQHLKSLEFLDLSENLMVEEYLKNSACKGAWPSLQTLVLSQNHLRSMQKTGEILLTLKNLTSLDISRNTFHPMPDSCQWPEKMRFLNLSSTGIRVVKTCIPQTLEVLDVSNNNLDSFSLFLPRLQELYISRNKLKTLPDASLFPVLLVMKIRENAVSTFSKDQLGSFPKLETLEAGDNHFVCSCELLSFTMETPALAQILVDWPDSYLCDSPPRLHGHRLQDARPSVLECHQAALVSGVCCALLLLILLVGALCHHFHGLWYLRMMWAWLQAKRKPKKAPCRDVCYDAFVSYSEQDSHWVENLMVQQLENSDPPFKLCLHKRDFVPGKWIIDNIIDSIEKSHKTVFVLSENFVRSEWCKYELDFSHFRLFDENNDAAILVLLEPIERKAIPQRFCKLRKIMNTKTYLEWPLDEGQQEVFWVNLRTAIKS

[3] = read-out: EC50 (nM) (mouse): EC50 TNF-α release from mouse macrophages, Table 5
[4] = read-out: EC50 (nM) (mouse): EC50 TNF-α release from mouse macrophages, Table 6
[5] = read-out: EC50 (nM) (mouse): EC50 TNF-α release from mouse macrophages, Table 1

SMILES	Emax (TLR1/TLR2 [1]) [%]	EC50 (TLR1/TLR2 [1]; Table 5) [nM]	Emax (TLR1/TLR2 [2]) [%]	EC50 (TLR1/TLR2 [2]; [3]) [nM]	other results
CC(C)(C)OC(=O)N[C@@H](Cc1ccccc1)C(=O)OCCCCCCCCCCCCNC(=O)[C@@H]1CN(C(=O)c2ccc(C(=O)N3C[C@@H](C(=O)N[C@H]4C[C@@H]4c4ccccc4)[C@H](C(=O)N[C@H]4C[C@@H]4c4ccccc4)C3)cc2)C[C@H]1C(=O)N[C@H]1C[C@@H]1c1ccccc1 [Compound 63, (S)-12-((3S,4S)-1-(4-((3S,4S)-3,4-Bis(((1S,2R)-2-phenylcyclopropyl)carbamoyl)pyrrolidine-1-carbonyl)-benzoyl)-4-(((1S,2R)-2-phenylcyclopropyl)carbamoyl)-pyrrolidine-3-carboxamido)-dodecyl 2-((tert-butoxy-carbonyl)amino)-3-phenylpropanoate]	100	40	220	40	–
CC(C)(C)OC(=O)NC1(C(=O)OCCCCCCCCCCCCNC(=O)[C@@H]2CN(C(=O)c3ccc(C(=O)N4C[C@@H](C(=O)N[C@H]5C[C@@H]5c5ccccc5)[C@H](C(=O)N[C@H]5C[C@@H]5c5ccccc5)C4)cc3)C[C@H]2C(=O)N[C@H]2C[C@@H]2c2ccccc2)CC1 [Compound 62, 12-((3S,4S)-1-(4-((3S,4S)-3,4-Bis(((1S,2R)-2-phenylcyclopropyl)carbamoyl)pyrrolidine-1-carbonyl)-benzoyl)-4-(((1S,2R)-2-phenylcyclopropyl)carbamoyl)-pyrrolidine-3-carboxamido)-dodecyl 1-((tert-butoxy-carbonyl)amino)cyclopropanecarboxylate]	100	5	220	10	–
CC(C)(C)OC(=O)NCC(=O)NCC(=O)OCCCCCCCCCCCCNC(=O)[C@@H]1CN(C(=O)c2ccc(C(=O)N3C[C@@H](C(=O)N[C@H]4C[C@@H]4c4ccccc4)[C@H](C(=O)N[C@H]4C[C@@H]4c4ccccc4)C3)cc2)C[C@H]1C(=O)N[C@H]1C[C@@H]1c1ccccc1 [Compound 72, 12-((3S,4S)-1-(4-((3S,4S)-3,4-Bis(((1S,2R)-2-phenyl-cyclopropyl)carbamoyl)pyrrolidine-1-carbonyl)benzoyl)-4-(((1S,2R)-2-phenylcyclopropyl)carbamoyl)pyrrolidine-3-carboxamido)-dodecyl 2-(2-((tert-butoxycarbonyl)amino)acetamido)acetate]	110	0.52	110	2.5	–
C[C@@H](NC(=O)OC(C)(C)C)C(=O)OCCCCCCCCCCCCNC(=O)[C@@H]1CN(C(=O)c2ccc(C(=O)N3C[C@@H](C(=O)N[C@H]4C[C@@H]4c4ccccc4)[C@H](C(=O)N[C@H]4C[C@@H]4c4ccccc4)C3)cc2)C[C@H]1C(=O)N[C@H]1C[C@@H]1c1ccccc1 [Compound 58, 12-((3S,4S)-1-(4-((3S,4S)-3,4-Bis(((1S,2R)-2-phenyl-cyclopropyl)carbamoyl)pyrrolidine-1-carbonyl)-benzoyl)-4-(((1S,2R)-2-phenylcyclopropyl)carbamoyl)-pyrrolidine-3-carboxamido)-dodecyl (tert-butoxycarbonyl)-D-alaninate]	110	1.7	200	5	–
O=C(OCCCCCCCCCCCCNC(=O)[C@@H]1CN(C(=O)c2ccc(C(=O)N3C[C@@H](C(=O)N[C@H]4C[C@@H]4c4ccccc4)[C@H](C(=O)N[C@H]4C[C@@H]4c4ccccc4)C3)cc2)C[C@H]1C(=O)N[C@H]1C[C@@H]1c1ccccc1)c1ccc(O)cc1 [Compound 75, 12-((3S,4S)-1-(4-((3S,4S)-3,4-Bis(((1S,2R)-2-phenylcyclopropyl)carbamoyl)pyrrolidine-1-carbonyl)benzoyl)-4-(((1S,2R)-2-phenyl-cyclopropyl)carbamoyl)pyrrolidine-3-carboxamido)-dodecyl 4-hydroxybenzoate]	100	–	540	–	EC50 (TLR1/TLR2 [1]; Table 6): 1.7 nM; EC50 (TLR1/TLR2 [2]; [4]): 50 nM
O=C(NCCCCCCCCc1ccc(O)cc1)[C@@H]1CN(C(=O)c2ccc(C(=O)N3C[C@@H](C(=O)N[C@H]4C[C@@H]4c4ccccc4)[C@H](C(=O)N[C@H]4C[C@@H]4c4ccccc4)C3)cc2)C[C@H]1C(=O)N[C@H]1C[C@@H]1c1ccccc1 [Compound 26, (3S,4S)-1-(4-((3S,4S)-3,4-Bis(((1S,2R)-2-phenylcyclo-propyl)carbamoyl)pyrrolidine-1-carbonyl)-benzoyl)-N^3-(8-(4-hydroxyphenyl)octyl)-N^4-((1S,2R)-2-phenylcyclo-propyl)pyrrolidine-3,4-dicarboxamide]	90	–	380	–	EC50 (TLR1/TLR2 [1]; Table 1): 0.15 nM; EC50 (TLR1/TLR2 [2]; [5]): 2.6 nM
CC(C)(C)OC(=O)CCOCCOCCOCCNC(=O)CCCCCCCCCCCNC(=O)[C@@H]1CN(C(=O)c2ccc(C(=O)N3C[C@@H](C(=O)N[C@H]4C[C@@H]4c4ccccc4)[C@H](C(=O)N[C@H]4C[C@@H]4c4ccccc4)C3)cc2)C[C@H]1C(=O)N[C@H]1C[C@@H]1c1ccccc1 [Compound 56, tert-Butyl 1-((3S,4S)-1-(4-((3S,4S)-3,4-bis(((1S,2R)-2-phenylcyclopropyl)carbamoyl)pyrrolidine-1carbonyl)benzoyl)-4-(((1S,2R)-2-phenylcyclopropyl)-carbamoyl)pyrrolidin-3-yl)-1,14-dioxo-18,21,24-trioxa-2,15-diazaheptacosan-27-oate]	100	–	140	–	EC50 (TLR1/TLR2 [1]; Table 4): 2.8 nM; EC50 (TLR1/TLR2 [2]; read-out: EC50 (nM) (mouse): EC50 TNF-α release from mouse macrophages, Table 4): 21 nM
NC(=O)CCCCCCCCCCCNC(=O)[C@@H]1CN(C(=O)c2ccc(C(=O)N3C[C@@H](C(=O)N[C@H]4C[C@@H]4c4ccccc4)[C@H](C(=O)N[C@H]4C[C@@H]4c4ccccc4)C3)cc2)C[C@H]1C(=O)N[C@H]1C[C@@H]1c1ccccc1 [Compound 12, (3S,4S)—N^3-(12-Amino-12-oxododecyl)-1-(4-((3S,4S)-3,4-bis(((1S,2R)-2-phenylcyclopropyl)-carbamoyl)-pyrrolidine-1-carbonyl)benzoyl)-N^4-((1S,2R)-2-phenyl-cyclopropyl)pyrrolidine-3,4-dicarboxamide]	110	–	120	–	EC50 (TLR1/TLR2 [1]; Table 1): 0.9 nM; EC50 (TLR1/TLR2 [2]; [5]): 60 nM
CC(C)(C)Oc1ccc(C(=O)OCCCCCCCCCCCCNC(=O)[C@@H]2CN(C(=O)c3ccc(C(=O)N4C[C@@H](C(=O)N[C@H]5C[C@@H]5c5ccccc5)[C@H](C(=O)N[C@H]5C[C@@H]5c5ccccc5)C4)cc3)C[C@H]2C(=O)N[C@H]2C[C@@H]2c2ccccc2)cc1 [Compound 76, 12-((3S,4S)-1-(4-((3S,4S)-3,4-Bis(((1S,2R)-2-phenylcyclopropyl)carbamoyl)pyrrolidine-1-carbonyl)benzoyl)-4-(((1S,2R)-2-phenyl-cyclopropyl)carbamoyl)pyrrolidine-3-carboxamido)-dodecyl 4-(tert-butoxy)benzoate]	< 50	–	150	–	EC50 (TLR1/TLR2 [1]; Table 6): 27 nM; EC50 (TLR1/TLR2 [2]; [4]): 540 nM
O=C(NCCOCCOCCOCCO)[C@@H]1CN(C(=O)c2ccc(C(=O)N3C[C@@H](C(=O)N[C@H]4C[C@@H]4c4ccccc4)[C@H](C(=O)N[C@H]4C[C@@H]4c4ccccc4)C3)cc2)C[C@H]1C(=O)N[C@H]1C[C@@H]1c1ccccc1 [Compound 30, (3S,4S)-1-(4-((3S,4S)-3,4-Bis(((1S,2R)-2-phenyl-cyclopropyl)carbamoyl)pyrrolidine-1-carbonyl)-benzoyl)-N^3-(2-(2-(2-(2-hydroxyethoxy)ethoxy)ethoxy)-ethyl)-N^4-((1S,2R)-2-phenylcyclopropyl)-pyrrolidine-3,4-dicarboxamide]	–	–	–	–	EC50 (TLR1/TLR2 [1]; Table 2): 2000 nM; EC50 (TLR1/TLR2 [2]): > 5000 nM
